From patent publication US4138491A, “Method for treating diabetes” (Daiichi Seiyaku Co., Ltd., priority 1976, dated 1979)
Values belong to the compound of their own block, whether it stands above or below them.

Tests used:
serum lactate level = assay: Influence on serum lactate level, repeated administration for 4 days; assay type: in vivo, normal rat
Description: The biguanide drugs heretofore used as a treatment for diabetes are said undesirably to cause acidosis due to an increase of serum lactate level when such drugs are repeatedly administered. The compounds of the present invention were repeatedly administered for 4 days to normal rats and the serum lactate level was determined every day to compare such with the administration of phenformine which is one example of a biguanide drug.
Compound A was repeatedly administered for 4 days to normal rats in a dosage of 200 mg/kg/day, and blood was sampled with the passage of time in order to determine the serum lactate level.

blood sugar level [1] = assay: Glucose tolerance test in streptozotocin-induced mildly diabetic rats; assay type: in vivo, rat (Wistar strain); conditions: 20 mg/kg PO; glucose 1 g/kg; sum of increments at 15, 30, 60, 90 min vs control; 100 = no improvement
Description: (§1) One index for the treatment of diabetes is to improve this glucose tolerance. The compound of the present invention was orally administered to normal rats, Streptozotocin-induced mildly diabetic rats and AYKK-mice, and thereafter glucose was administered intraperitoneally 1 hour later, and the glucose tolerance was examined. […] Further, a lowering of blood sugar in the glucose tolerance test using normal rats was examined with the passage of time, and the results obtained are given in Table 1 below.
(§2) A sample aqueous solution or suspension was orally administered to the test animals which had been fasted for 24 hours and one hour later glucose was intraperitoneally or subcutaneously administered to the test animals. Thereafter, blood was sampled from the tail vein with the passage of time in order to determine the blood sugar level by the glucose-oxidase method.
*4The streptozotocin-induced mildly diabetic rats were produced by […]

blood insulin [2] = assay: Insulin releasing action, fed mice; assay type: in vivo, mouse
Description: (§3) Among the test animals fed rats were anesthetized by administration of pentobarbital (40 mg/kg, ip), and administered, intravenously with an isotonic sodium chloride solution of Compound A. An aqueous solution of the sample was orally administered to fed mice. In both cases blood was sampled from the tail vein with the passage of time, and the blood insulin was determined by the radioimmunoassay method of Morgen et al [Diabetes, Vol. 12, pp 115 (1963)]. At the same time blood sugar was also determined. […] The amount of insulin released in Table 4 was obtained by determining the difference between the blood insulin level at 5 points (5, 10, 20, 30, 40 minutes) during a 40 minute period after administration of the sample in the case of rats or 3 points (0.5, 1.0, 2.0 hours) during a 2 hour period after administration of the sample in the case of mice and the blood insulin level at 0 minute just before administration of the sample and then by summing up these differences.

blood sugar level [3] = assay: Blood sugar lowering activity, fasted rat; assay type: in vivo
Description: (§4) The compounds of the present invention were orally administered to normal rats, mice, dogs and hereditary diabetic mice(AYKK-mice), and the blood sugar lowering activity was examined.
(§5) Test animals which were used included animals which had been fasted for 24 hours to achieve an empty stomach, and animals which had been fed to achieve a full stomach without any restriction of diet. A sample aqueous solution or suspension was orally administered, and blood was sampled with the passage of time from the tail vein or the cephalic vein in order to determine the level of blood sugar by the glucose-oxidase method.

blood insulin [4] = assay: Insulin releasing action, fed rats; assay type: in vivo, rat; conditions: 50 mg/kg iv
Description: as §3

blood sugar level [5] = assay: Glucose tolerance test in normal rats (oral compound, glucose load 1 hour later); assay type: in vivo, normal rat; conditions: for Glucose Tolerance Improving Activity / Blood Glucose Level, 0 min / Blood Glucose Level, 15 min / Blood Glucose Level, 30 min / Blood Glucose Level, 60 min / Blood Glucose Level, 90 min / Blood Glucose Level, before glucose load (-60 min.): glucose 2 g/kg; for Glucose Tolerance Improving Activity: sum of increments at 15, 30, 60, 90 min vs control, 100 = no improvement
Description: as §1, §2

blood sugar level [6] = assay: Blood sugar lowering activity, fed mouse; assay type: in vivo
Description: as §4, §5

blood sugar level [7] = assay: Glucose tolerance test in AYKK mice; assay type: in vivo, AYKK mouse; conditions: glucose 1 g/kg, sum of increments at 15, 30, 60, 90 min vs control, 100 = no improvement
Description: as §1, §2
*5AYKK-mouse was obtained by mating a yellow mouse having symptoms of […]

blood sugar level [8] = assay: Blood sugar lowering activity, fed AγKK (AYKK) mouse, hereditary diabetic; assay type: in vivo; conditions: for Blood Sugar Level (control = 100), 1 Hr / Blood Sugar Level (control = 100), 2 Hrs / Blood Sugar Level (control = 100), 3 Hrs / Blood Sugar Level (control = 100), 5 Hrs: fed AγKK mouse
Description: as §4, §5

blood sugar level [9] = assay: Blood sugar lowering activity, fasted beagle; assay type: in vivo, beagle dog; conditions: 25 mg/kg PO
Description: as §4, §5

Acute toxicity (rat) = conditions: in vivo, read-out: Acute Toxicity (rat) ID50
[10] = test system: blood platelet aggregation induced by collagen in rat platelet rich plasma; assay: Blood platelet aggregation inhibiting activity (collagen induced, in vitro); assay type: cell-based; conditions: read-out: Platelet Aggregation Inhibition Activity, ID50
Description: It is generally said that blood platelet aggregability is accelerated in a diabetes patient and that this secondarily causes blood vessel disorders. […] Thus, based on this the compounds of the present invention are expected to be useful in preventing and improving the secondary vasular lesions of diabetes mellitus.
Citrated rat blood was centrifuged in order to obtain platelet rich plasma, and to 0.4 ml of this plasma was added 50 μl of sample solution. To the resulting solution was added 50 μl of collagen suspension under stirring, and platelet aggregation reaction was determined according to the method of Born [Nature, Vol. 194, pp. 927 (1962)]. The concentration of the sample (ID50) which inhibits 50% of the aggregation reaction of the control without the test sample added is shown in Table 6 below.

Serum Lactate Level, 0 Day (serum lactate level; 0 Day, Compound A 200 mg/kg/day (phenformin dose not given)): 1.061±0.099 μ mol/ml
Serum Lactate Level, After 1 Day (serum lactate level; After 1 Day, Compound A 200 mg/kg/day (phenformin dose not given)): 2.086±0.066 μ mol/ml
Serum Lactate Level, After 4 Days (serum lactate level; After 4 Days, Compound A 200 mg/kg/day (phenformin dose not given)): 3.009±0.641 μ mol/ml
Compound: [H]/N=C(/N)N/C(=N/[H])NCCc1ccccc1 [Phenformin]
increase in serum lactate level (serum lactate level; repeated administration for 4 days, normal rats, in words): remarkable increase in serum lactate level

Compound: CCCCNC(=O)NS(=O)(=O)c1ccc(C)cc1 [Tolbutamide, reference compound]
Glucose Tolerance Improving Activity (blood sugar level [1]): 67.4%
Blood Sugar Level (blood insulin [2]; fed mice, 50 mg/kg po, after 2 hours, control = 100): 95.7%
Amount of Insulin Released (blood insulin [2]; fed mice, 50 mg/kg po, sum of differences at 0.5, 1.0, 2.0 hours): -2.2±3.3 μunit/ml
insulin releasing action in mice (blood insulin [2]; mice, in words): little action on insulin release
Blood Sugar Level (control = 100), 1 Hr (blood sugar level [3]; 10 mg/kg PO): 96%
Blood Sugar Level (control = 100), 2 Hrs (blood sugar level [3]; 10 mg/kg PO): 89%
Blood Sugar Level (control = 100), 3 Hrs (blood sugar level [3]; 10 mg/kg PO): 92%
Blood Sugar Level (control = 100), 5 Hrs (blood sugar level [3]; 10 mg/kg PO): 91%
Blood Sugar Level (control = 100), 1 Hr (blood sugar level [3]; 25 mg/kg PO): 90%
Blood Sugar Level (control = 100), 2 Hrs (blood sugar level [3]; 25 mg/kg PO): 80%
Blood Sugar Level (control = 100), 3 Hrs (blood sugar level [3]; 25 mg/kg PO): 76%
Blood Sugar Level (control = 100), 5 Hrs (blood sugar level [3]; 25 mg/kg PO): 82%
Blood Sugar Level (blood insulin [4]; after 90 minutes, control = 100): 56%
Amount of Insulin Released (blood insulin [4]; sum of differences at 5, 10, 20, 30, 40 min): 189±26 μunit/ml
Glucose Tolerance Improving Activity (blood sugar level [5]; 20 mg/kg PO): 64.5%
Blood Glucose Level, 0 min (blood sugar level [5]; 20 mg/kg): 79 ± 2 mg/dL
Blood Glucose Level, 15 min (blood sugar level [5]; 20 mg/kg): 121 ± 5 mg/dL
Blood Glucose Level, 30 min (blood sugar level [5]; 20 mg/kg): 114 ± 5 mg/dL
Blood Glucose Level, 60 min (blood sugar level [5]; 20 mg/kg): 98 ± 5 mg/dL
Blood Glucose Level, 90 min (blood sugar level [5]; 20 mg/kg): 90 ± 4 mg/dL
Blood Glucose Level, before glucose load (-60 min.) (blood sugar level [5]; 20 mg/kg): 80 ± 2 mg/dL
Blood Sugar Level (control = 100), 1 Hr (blood sugar level [6]; 50 mg/kg PO): 95%
Blood Sugar Level (control = 100), 2 Hrs (blood sugar level [6]; 50 mg/kg PO): 92%
Blood Sugar Level (control = 100), 3 Hrs (blood sugar level [6]; 50 mg/kg PO): 74%
Blood Sugar Level (control = 100), 5 Hrs (blood sugar level [6]; 50 mg/kg PO): 96%
Glucose Tolerance Improving Activity (blood sugar level [7]; 50 mg/kg PO): 69.6%
Blood Sugar Level (control = 100), 1 Hr (blood sugar level [8]; 50 mg/kg PO): 94%
Blood Sugar Level (control = 100), 2 Hrs (blood sugar level [8]; 50 mg/kg PO): 86%
Blood Sugar Level (control = 100), 3 Hrs (blood sugar level [8]; 50 mg/kg PO): 86%
Blood Sugar Level (control = 100), 5 Hrs (blood sugar level [8]; 50 mg/kg PO): 92%
effectiveness on AYKK-mice (blood sugar lowering) (blood sugar level [8]; oral, AYKK-mice, in words): uneffective

Compound: c1ccc(C(CC2=NCCN2)c2ccccn2)cc1 (stereo not shown) [Compound B, 2-[2-phenyl-2-(2-pyridyl)]ethylimidazoline]
Blood Sugar Level (control = 100), 1 Hr (blood sugar level [9]; 1 h): 76%
Blood Sugar Level (control = 100), 2 Hrs (blood sugar level [9]; 2 h): 58%
Blood Sugar Level (control = 100), 3 Hrs (blood sugar level [9]; 3 h): 70%
Blood Sugar Level (control = 100), 5 Hrs (blood sugar level [9]; 5 h): 71%
Blood Sugar Level (control = 100), 1 Hr (blood sugar level [3]; 10 mg/kg PO): 71%
Blood Sugar Level (control = 100), 2 Hrs (blood sugar level [3]; 10 mg/kg PO): 67%
Blood Sugar Level (control = 100), 3 Hrs (blood sugar level [3]; 10 mg/kg PO): 58%
Blood Sugar Level (control = 100), 5 Hrs (blood sugar level [3]; 10 mg/kg PO): 73%
Blood Sugar Level (control = 100), 1 Hr (blood sugar level [3]; 25 mg/kg PO): 83%
Blood Sugar Level (control = 100), 2 Hrs (blood sugar level [3]; 25 mg/kg PO): 68%
Blood Sugar Level (control = 100), 3 Hrs (blood sugar level [3]; 25 mg/kg PO): 68%
Blood Sugar Level (control = 100), 5 Hrs (blood sugar level [3]; 25 mg/kg PO): 76%
Glucose Tolerance Improving Activity (blood sugar level [5]; 10 mg/kg PO): 22.0%
Blood Glucose Level, 0 min (blood sugar level [5]; 10 mg/kg): 74 ± 3 mg/dL
Blood Glucose Level, 15 min (blood sugar level [5]; 10 mg/kg): 91 ± 9 mg/dL
Blood Glucose Level, 30 min (blood sugar level [5]; 10 mg/kg): 91 ± 5 mg/dL
Blood Glucose Level, 60 min (blood sugar level [5]; 10 mg/kg): 79 ± 4 mg/dL
Blood Glucose Level, 90 min (blood sugar level [5]; 10 mg/kg): 68 ± 5 mg/dL
Blood Glucose Level, before glucose load (-60 min.) (blood sugar level [5]; 10 mg/kg): 90 ± 2 mg/dL
blood sugar level maintained after glucose load (blood sugar level [5]; normal rats, Table 1, in words): maintains the blood sugar level in the range of the fasting blood sugar level
rise in blood sugar level due to the glucose load (blood sugar level [5]; normal rats, Table 1, in words): scarcely any rise in blood sugar level
LD50 (Acute toxicity (rat)): 867 mg/kg
Blood Sugar Level (control = 100), 1 Hr (blood sugar level [6]; 25 mg/kg PO): 77%
Blood Sugar Level (control = 100), 2 Hrs (blood sugar level [6]; 25 mg/kg PO): 68%
Blood Sugar Level (control = 100), 3 Hrs (blood sugar level [6]; 25 mg/kg PO): 78%
Blood Sugar Level (control = 100), 5 Hrs (blood sugar level [6]; 25 mg/kg PO): 86%
Glucose Tolerance Improving Activity (blood sugar level [7]; 25 mg/kg PO): 62.7%
Blood Sugar Level (control = 100), 1 Hr (blood sugar level [8]; 25 mg/kg PO): 77%
Blood Sugar Level (control = 100), 2 Hrs (blood sugar level [8]; 25 mg/kg PO): 75%
Blood Sugar Level (control = 100), 3 Hrs (blood sugar level [8]; 25 mg/kg PO): 72%
Blood Sugar Level (control = 100), 5 Hrs (blood sugar level [8]; 25 mg/kg PO): 78%
IC50 [10]: 300 µM
